Source: PubChem BioAssay (NCI)
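How tested: cells in 96-well plates exposed to compound for 48 hours at five concentrations. At the GI50, growth is halved. TGI: concentration producing complete growth inhibition.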

Columns and labels:
Test in all cases: growth of human tumour cells (NCI), 48 h; in the data active = GI50 below about 0.43 µM; inactive = the rest
786-0 renal = test system: 786-0 renal
A498 renal = test system: A498 renal
A549 NSCLC = test system: A549 NSCLC
ACHN renal = test system: ACHN renal
BT-549 breast = test system: BT-549 breast
CAKI-1 renal = test system: CAKI-1 renal
CCRF-CEM leukemia = test system: CCRF-CEM leukemia
COLO 205 colon = test system: COLO 205 colon
DU-145 prostate = test system: DU-145 prostate
HCC-2998 colon = test system: HCC-2998 colon
HCT-116 colon = test system: HCT-116 colon
HCT-15 colon = test system: HCT-15 colon
HL-60(TB) leukemia = test system: HL-60(TB) leukemia
HOP-62 NSCLC = test system: HOP-62 NSCLC
HOP-92 NSCLC = test system: HOP-92 NSCLC
HS 578T breast = test system: HS 578T breast
HT29 colon = test system: HT29 colon
IGROV1 ovarian = test system: IGROV1 ovarian
K-562 leukemia = test system: K-562 leukemia
KM12 colon = test system: KM12 colon
LOX IMVI melanoma = test system: LOX IMVI melanoma
MALME-3M melanoma = test system: MALME-3M melanoma
MCF7 breast = test system: MCF7 breast
MDA-MB-231 breast = test system: MDA-MB-231 breast
MDA-MB-435 = test system: MDA-MB-435
MOLT-4 leukemia = test system: MOLT-4 leukemia
NCI-H226 lung = test system: NCI-H226 lung
NCI-H23 lung = test system: NCI-H23 lung
NCI-H460 lung = test system: NCI-H460 lung
NCI-H522 lung = test system: NCI-H522 lung
NCI/ADR-RES ovarian = test system: NCI/ADR-RES ovarian
OVCAR-3 ovarian = test system: OVCAR-3 ovarian
OVCAR-4 ovarian = test system: OVCAR-4 ovarian
OVCAR-5 ovarian = test system: OVCAR-5 ovarian
OVCAR-8 ovarian = test system: OVCAR-8 ovarian
PC-3 prostate = test system: PC-3 prostate
RPMI-8226 leukemia = test system: RPMI-8226 leukemia
RXF 393 renal = test system: RXF 393 renal
SF-268 CNS = test system: SF-268 CNS
SF-295 CNS = test system: SF-295 CNS
SF-539 CNS = test system: SF-539 CNS
SK-MEL-2 melanoma = test system: SK-MEL-2 melanoma
SK-MEL-28 melanoma = test system: SK-MEL-28 melanoma
SK-MEL-5 melanoma = test system: SK-MEL-5 melanoma
SK-OV-3 ovarian = test system: SK-OV-3 ovarian
SN12C renal = test system: SN12C renal
SNB-19 CNS = test system: SNB-19 CNS
SNB-75 CNS = test system: SNB-75 CNS
SR leukemia = test system: SR leukemia
SW-620 colon = test system: SW-620 colon
T-47D breast = test system: T-47D breast
TK-10 renal = test system: TK-10 renal
U251 CNS = test system: U251 CNS
UACC-257 melanoma = test system: UACC-257 melanoma
UACC-62 melanoma = test system: UACC-62 melanoma
UO-31 renal = test system: UO-31 renal
EKVX NSCLC = test system: EKVX NSCLC
M14 melanoma = test system: M14 melanoma

Oc1ccc(Br)cc1CN1CCN(Cc2ccc(Cl)cc2)CC1
94.3 µM: TGI (MCF7 breast)
80 µM: TGI (RXF 393 renal)
45.8 µM: TGI (MALME-3M melanoma)
62.5 µM: TGI (HT29 colon)
40.3 µM: TGI (SK-MEL-2 melanoma)
59.4 µM: TGI (MDA-MB-231 breast) | TGI (UACC-257 melanoma)
51.3 µM: TGI (HCT-15 colon)
active: GI50 (A498 renal) 0.4 µM
inactive: GI50 (786-0 renal) 21.2 µM | GI50 (A549 NSCLC) 25.1 µM | GI50 (ACHN renal) 31.7 µM | GI50 (BT-549 breast) 38.2 µM | GI50 (CAKI-1 renal) 22.7 µM | GI50 (CCRF-CEM leukemia) 24.3 µM | GI50 (COLO 205 colon) 21.7 µM | GI50 (DU-145 prostate) 46.3 µM | GI50 (HCC-2998 colon) 30.8 µM | GI50 (HCT-116 colon) 21.1 µM | GI50 (HCT-15 colon) 16.1 µM | GI50 (HL-60(TB) leukemia) 22.8 µM | GI50 (HOP-62 NSCLC) 36.5 µM | GI50 (HOP-92 NSCLC) 11.1 µM | GI50 (HS 578T breast) 28.6 µM | GI50 (HT29 colon) 23.2 µM | GI50 (IGROV1 ovarian) 44.3 µM | GI50 (K-562 leukemia) 10.2 µM | GI50 (KM12 colon) 26.3 µM | GI50 (LOX IMVI melanoma) 16.3 µM | GI50 (MALME-3M melanoma) 14.7 µM | GI50 (MCF7 breast) 18.4 µM | GI50 (MDA-MB-231 breast) 17 µM | GI50 (MDA-MB-435) 20.8 µM | GI50 (MOLT-4 leukemia) 26.7 µM | GI50 (NCI-H226 lung) 20.8 µM | GI50 (NCI-H23 lung) 16.5 µM | GI50 (NCI-H460 lung) 25.7 µM | GI50 (NCI-H522 lung) 13.3 µM | GI50 (NCI/ADR-RES ovarian) 17.2 µM | GI50 (OVCAR-3 ovarian) 26.3 µM | GI50 (OVCAR-4 ovarian) 11.8 µM | GI50 (OVCAR-5 ovarian) 21.2 µM | GI50 (OVCAR-8 ovarian) 24.8 µM | GI50 (PC-3 prostate) 23.9 µM | GI50 (RPMI-8226 leukemia) 14.4 µM | GI50 (RXF 393 renal) 17.3 µM | GI50 (SF-268 CNS) 31.5 µM | GI50 (SF-295 CNS) 18.6 µM | GI50 (SF-539 CNS) 32 µM | GI50 (SK-MEL-2 melanoma) 13.2 µM | GI50 (SK-MEL-28 melanoma) 24 µM | GI50 (SK-MEL-5 melanoma) 13 µM | GI50 (SK-OV-3 ovarian) 31 µM | GI50 (SN12C renal) 27.1 µM | GI50 (SNB-19 CNS) 37.8 µM | GI50 (SNB-75 CNS) 27.6 µM | GI50 (SR leukemia) 19.1 µM | GI50 (SW-620 colon) 22.2 µM | GI50 (T-47D breast) 8.9 µM | GI50 (TK-10 renal) 24.8 µM | GI50 (U251 CNS) 27.7 µM | GI50 (UACC-257 melanoma) 16.5 µM | GI50 (UACC-62 melanoma) 17.6 µM | GI50 (UO-31 renal) 9.5 µM
39.2 µM: TGI (NCI-H522 lung)
36.9 µM: TGI (LOX IMVI melanoma)
86.3 µM: TGI (OVCAR-4 ovarian)
> 100 µM: TGI (A549 NSCLC) | TGI (ACHN renal) | TGI (BT-549 breast) | TGI (CAKI-1 renal) | TGI (CCRF-CEM leukemia) | TGI (DU-145 prostate) | TGI (HCC-2998 colon) | TGI (HCT-116 colon) | TGI (HOP-62 NSCLC) | TGI (HS 578T breast) | TGI (IGROV1 ovarian) | TGI (K-562 leukemia) | TGI (KM12 colon) | TGI (MOLT-4 leukemia) | TGI (NCI-H226 lung) | TGI (NCI-H23 lung) | TGI (NCI-H460 lung) | TGI (NCI/ADR-RES ovarian) | TGI (OVCAR-3 ovarian) | TGI (OVCAR-8 ovarian) | TGI (PC-3 prostate) | TGI (RPMI-8226 leukemia) | TGI (SF-268 CNS) | TGI (SF-295 CNS) | TGI (SF-539 CNS) | TGI (SK-MEL-28 melanoma) | TGI (SK-OV-3 ovarian) | TGI (SN12C renal) | TGI (SNB-19 CNS) | TGI (SNB-75 CNS) | TGI (T-47D breast) | TGI (TK-10 renal) | TGI (U251 CNS) | TGI (UACC-62 melanoma) | TGI (UO-31 renal)
92.5 µM: TGI (SW-620 colon)
26.4 µM: TGI (SK-MEL-5 melanoma)
51.1 µM: TGI (COLO 205 colon)
45 µM: TGI (A498 renal)
66.5 µM: TGI (HL-60(TB) leukemia)
72.1 µM: TGI (HOP-92 NSCLC)
75.2 µM: TGI (OVCAR-5 ovarian)
90.4 µM: TGI (MDA-MB-435)
80.9 µM: TGI (786-0 renal) | TGI (SR leukemia)

N#CC1=C(N)NC(=S)NC1c1ccc(-c2ccc(-c3nc4ccccc4s3)cc2)o1 (stereo unspecified)
25.7 µM: TGI (SR leukemia)
22 µM: TGI (K-562 leukemia)
39.4 µM: TGI (SK-MEL-5 melanoma)
32.2 µM: TGI (U251 CNS)
22.8 µM: TGI (LOX IMVI melanoma)
31.7 µM: TGI (SF-539 CNS)
inactive: GI50 (786-0 renal) > 50 µM | GI50 (A549 NSCLC) 31.6 µM | GI50 (ACHN renal) 28.1 µM | GI50 (BT-549 breast) 21.7 µM | GI50 (CAKI-1 renal) 35.3 µM | GI50 (COLO 205 colon) 17.4 µM | GI50 (DU-145 prostate) 42.3 µM | GI50 (EKVX NSCLC) > 50 µM | GI50 (HCT-116 colon) 13 µM | GI50 (HCT-15 colon) 17.5 µM | GI50 (HL-60(TB) leukemia) 30.7 µM | GI50 (HOP-62 NSCLC) > 50 µM | GI50 (HOP-92 NSCLC) > 50 µM | GI50 (HS 578T breast) > 50 µM | GI50 (IGROV1 ovarian) 32.1 µM | GI50 (K-562 leukemia) 9.98 µM | GI50 (KM12 colon) 17 µM | GI50 (LOX IMVI melanoma) 10.6 µM | GI50 (M14 melanoma) 20.8 µM | GI50 (MCF7 breast) 9.71 µM | GI50 (MDA-MB-231 breast) 16.3 µM | GI50 (MDA-MB-435) 39.1 µM | GI50 (NCI-H23 lung) 33.2 µM | GI50 (NCI-H460 lung) 10.4 µM | GI50 (NCI-H522 lung) 40.3 µM | GI50 (NCI/ADR-RES ovarian) > 50 µM | GI50 (OVCAR-3 ovarian) > 50 µM | GI50 (OVCAR-5 ovarian) > 50 µM | GI50 (OVCAR-8 ovarian) 35.1 µM | GI50 (PC-3 prostate) 31.2 µM | GI50 (RPMI-8226 leukemia) 32.8 µM | GI50 (SF-268 CNS) 28.9 µM | GI50 (SF-295 CNS) 26.9 µM | GI50 (SF-539 CNS) 15.2 µM | GI50 (SK-MEL-2 melanoma) 41 µM | GI50 (SK-MEL-5 melanoma) 14.6 µM | GI50 (SK-OV-3 ovarian) > 50 µM | GI50 (SN12C renal) > 50 µM | GI50 (SNB-19 CNS) > 50 µM | GI50 (SR leukemia) 11.3 µM | GI50 (SW-620 colon) 37.5 µM | GI50 (T-47D breast) 43.2 µM | GI50 (TK-10 renal) 37.9 µM | GI50 (U251 CNS) 11.8 µM | GI50 (UACC-257 melanoma) 36.9 µM | GI50 (UACC-62 melanoma) 16.1 µM | GI50 (UO-31 renal) > 50 µM
25.2 µM: TGI (NCI-H460 lung)
> 50 µM: TGI (786-0 renal) | TGI (A549 NSCLC) | TGI (ACHN renal) | TGI (BT-549 breast) | TGI (CAKI-1 renal) | TGI (COLO 205 colon) | TGI (DU-145 prostate) | TGI (EKVX NSCLC) | TGI (HCT-15 colon) | TGI (HL-60(TB) leukemia) | TGI (HOP-62 NSCLC) | TGI (HOP-92 NSCLC) | TGI (HS 578T breast) | TGI (IGROV1 ovarian) | TGI (KM12 colon) | TGI (M14 melanoma) | TGI (MCF7 breast) | TGI (MDA-MB-231 breast) | TGI (MDA-MB-435) | TGI (NCI-H23 lung) | TGI (NCI-H522 lung) | TGI (NCI/ADR-RES ovarian) | TGI (OVCAR-3 ovarian) | TGI (OVCAR-5 ovarian) | TGI (OVCAR-8 ovarian) | TGI (PC-3 prostate) | TGI (RPMI-8226 leukemia) | TGI (SF-268 CNS) | TGI (SF-295 CNS) | TGI (SK-MEL-2 melanoma) | TGI (SK-OV-3 ovarian) | TGI (SN12C renal) | TGI (SNB-19 CNS) | TGI (SW-620 colon) | TGI (T-47D breast) | TGI (TK-10 renal) | TGI (UACC-257 melanoma) | TGI (UACC-62 melanoma) | TGI (UO-31 renal)
31.8 µM: TGI (HCT-116 colon)
